Laboratory results reported in paper PMC9856672, “SGC-CAMKK2-1: A Chemical Probe for CAMKK2” (Cells, 2023).
“Also recorded” adds a separate entry of the source.

Experiments:
[1] = system: p-AMPK(Thr172) in C4-2 cells; test: Western blot of p-AMPK(Thr172) in C4-2 prostate cancer cells; assay type: cell-based; details: 24 h treatment; for IC50: C4-2, 24 h, three individual experiments, read-out: IC50 for decrease of p-AMPK(Thr172) normalized to total AMPK
Protocol: C4-2 cells were plated in 6-well plates in IMEM medium containing 0.5% FBS. After 72 h, the cells were then treated with the compounds for 24 h before the media was aspirated and cells were washed twice in ice-cold PBS. Cells were lysed using RIPA buffer containing phosphatase and protease inhibitor cocktail while rotating for 30 min at 4 °C. In each lane, 30 μg/well of protein lysate was loaded into a 10% SDS-PAGE gel and run for 1 h and 30 min. Gels were then transferred overnight in a TRIS-glycine/methanol transfer buffer onto a PVDF membrane at 4 °C. Membranes were blocked, incubated with primary overnight at 4 °C, washed, incubated with secondary at room temperature for 1 h, washed, and then developed on an Azure Biosystems C-600 imager. Densitometry was performed using ImageJ. Total-AMPK was normalized to GAPDH and then p-AMPK was normalized to normalized total-AMPK. Normalized p-AMPK was used to calculate IC50 in GraphPad Prism 9.5.0. Primary antibodies used were from Cell Signaling (Danvers, MA, USA; Phospho-AMPKα (Thr172) (40H9) Rabbit mAb: Cat#: 2535; AMPKα (D5A2) Rabbit mAb Cat#: 5831), BD Bioscience (Franklin Lakes, NJ, USA; CAMKK2 mouse mAb Cat# 610544), and Sigma (St. Louis, MO, USA; GAPDH rabbit pAb: Cat# G9545). Secondary antibody (Goat Anti-Rabbit IgG (H + L)-HRP Conjugate; Cat#:1706515) was from Bio-Rad Laboratories (Hercules, CA, USA).
In this experiment, IC50 was calculated via quantifying changes in p-AMPK(Thr172) normalized to total AMPK levels.

[2] = system: panel of more than 400 wild-type human kinases; test: DiscoverX KINOMEscan broad kinome profiling (panel of more than 400 wild-type human kinases), selectivity score S10; assay type: binding; details: KINOMEscan at 1 μM; number of wild type kinases with % control ≤10 / number tested
Protocol: Compounds were screened at Eurofins DiscoverX (Freemont, CA) at a single concentration of 1 μM using binding assays as described previously. Briefly, extracts containing DNA-tagged kinases are incubated with immobilized kinase inhibitors and the test compound (at 1 μM). Test compounds that displace the immobilized broad-spectrum inhibitors are detected by quantitative PCR. The results are expressed as the percentage of kinase bound to the bead compared to DMSO control (%control). […] The formula to calculate S10 depicted in Equation (1). (1) S10(1 μM)=number of wild type kinase with % control ≤10/number of wild type kinase tested
A series of furo [2,3-b]pyridines were generated with modifications off the core at the 3- and 5-positions. They were profiled in the CAMKK2 enzyme assay we have described and utilized previously. Briefly, the enzyme assay measures the ability of the compound to inhibit the transfer of a radiolabeled phosphate from ATP to a CAMKK2-specific peptide. […] 5 was then profiled in the DiscoverX KINOMEscan™ assay panel to provide a view of the overall kinome-wide selectivity (Supplemental S2). This assay platform evaluates compound affinity for a panel of more than 400 wild-type human kinases. The S10 (1 µM), a calculated score that is reflective of broad kinome selectivity, is 0.002 for the probe molecule.

[3] = target: CAMKK2 (Homo sapiens, UniProt Q96RR4); test: CAMKK2 enzyme assay (radiolabeled phosphate transfer from [γ-32P]-ATP to CaMKKtide); assay type: biochemical; parameters: purified recombinant CAMKK2 (100 pM) was incubated in assay buffer; details: 200 μM ATP, 100 pM CAMKK2
Protocol: CAMKK2 activity was determined by measuring the transfer of radiolabeled phosphate from [γ-^32P]-ATP to a synthetic peptide substrate (CaMKKtide) as previously described. Briefly, purified recombinant CAMKK2 (100 pM) was incubated in assay buffer (50 mM HEPES [pH 7.4], 1 mM DTT, 0.02% [v/v] Brij-35) containing 200 μM CaMKKtide (Genscript), 100 μM CaCl2, 1 μM CaM (Sigma-Aldrich, Castle Hill, NSW, Australia), 200 μM [γ-^32P]-ATP (Perkin Elmer, Boston, MA, USA), 5 mM MgCl2 (Sigma-Aldrich, Castle Hill, NSW, Australia), and various concentrations of inhibitors (0–1 μM) in a standard 30 μL assay for 10 min at 30 °C. Reactions were terminated by spotting 15 μL onto P81 phosphocellulose paper (GE Lifesciences, Paramatta, NSW, Australia) and washing extensively in 1% phosphoric acid (Sigma-Aldrich, Castle Hill, NSW, Australia). Radioactivity was quantified by liquid scintillation counting.
A series of furo [2,3-b]pyridines were generated with modifications off the core at the 3- and 5-positions. They were profiled in the CAMKK2 enzyme assay we have described and utilized previously. Briefly, the enzyme assay measures the ability of the compound to inhibit the transfer of a radiolabeled phosphate from ATP to a CAMKK2-specific peptide. […] The S10 (1 µM), a calculated score that is reflective of broad kinome selectivity, is 0.002 for the probe molecule.

[4] = system: p-AMPK(Thr172) in MDA-MB-231 cells; test: Immunoblot of p-AMPK(Thr172) in MDA-MB-231 breast cancer cells; assay type: cell-based; details: 24 h
Protocol: The cells were then washed three times with 2 mL of ice-cold PBS and lysed with 0.15 mL of phospho-RIPA lysis buffer (Tris-Cl pH 7.5, 50 mM; NaCl, 150 mM; NP-40, 1%; sodium deoxycholate, 0.5%; SDS, 0.05%; EDTA, 5 mM; sodium fluoride, 50 mM; sodium pyrophosphate, 15 mM; ß-glycerophosphate, 10 mM; sodium orthovanadate, 1 mM) with protease inhibitor cocktail (Millipore-Sigma, P-8340). Equal amounts of protein per sample/lane were denatured and resolved by SDS-PAGE. Proteins were transferred to Odyssey Nitrocellulose Membranes (LI-COR Biosciences, cat no: 926-31092), and quantitative immunoblotting was performed using the Odyssey infrared immunoblotting detection system (LI-COR Biosciences, Lincoln, NE, USA). Images were captured using the LI-COR Odyssey Classic scanner and processed using LI-COR Image Studio software, version 4.0. Quantification of the bands was done using Image Studio software tools whereby each individual immunoblot band was highlighted to obtain the signal intensity. The signal intensity of the pAMPK band was then divided by that of total AMPK and the data were normalized to the vehicle-only controls for each experiment. Primary antibodies used were anti-phospho AMPKα (Thr172) (Cell Signaling, cat no: 2535, dilution 1:1000); anti-AMPKα (Cell Signaling, cat.no: 2532, dil 1:500), and anti β-actin (Cat no: 3700, Cell signaling, dil 1:10,000). […]

[5] = target: T1, RSK4(Kin.Dom.2-C-terminal) (Homo sapiens, UniProt Q9UK32); test: DiscoverX KINOMEscan binding assay at 1 μM, RSK4(Kin.Dom.2-C-terminal); details: RSK4(Kin.Dom.2-C-terminal) (RPS6KA6); Compound Concentration 1000 nM; read-out: Percent Control
T1 construct: RSK4(Kin.Dom.2-C-terminal); purchased Eurofins DiscoverX KINOMEscan
T1 sequence (Q9UK32 401-745 limits assumed): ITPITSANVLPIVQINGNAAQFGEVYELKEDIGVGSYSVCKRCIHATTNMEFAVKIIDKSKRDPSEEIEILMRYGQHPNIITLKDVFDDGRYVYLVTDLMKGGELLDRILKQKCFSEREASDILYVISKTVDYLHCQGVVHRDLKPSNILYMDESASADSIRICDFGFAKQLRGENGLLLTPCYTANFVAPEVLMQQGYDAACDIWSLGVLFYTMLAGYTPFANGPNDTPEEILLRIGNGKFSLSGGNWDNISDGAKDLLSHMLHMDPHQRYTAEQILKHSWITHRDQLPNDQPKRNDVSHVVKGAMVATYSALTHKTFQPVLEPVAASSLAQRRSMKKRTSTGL
Text: Supplement cells-12-00287-s001.zip/File S2. KinomeScan data for the CAMKK2 probe and negative control.xlsx, sheet "SGC-CAMKK2-1" | column: Percent Control

| Compound | IC50 [1] [nM] | S10 (1 μM) [2] | IC50 [3] [nM] | blocking of AMPK phosphorylation (in words) ([4]; SGC-CAMKK2-1) | activity on p-AMPK(Thr172) levels (in words) [1] | IC50 ([3]; n = 1) [nM] | blocking of AMPK phosphorylation (in words) ([4]; negative control at 10 μM) | remaining binding at 1 µM [5] [%] |
| --- | --- | --- | --- | --- | --- | --- | --- | --- |
| Cc1cccc(-c2cnc3occ(-c4ccc(C(=O)O)c(C5CCCC5)c4)c3c2)c1 [Compound 5] | 1600 | 0.002 | 30 | more effective than STO-609; also recorded: higher efficacy than STO-609 |  |  |  |  |
| O=C(O)c1ccc(-c2coc3ncc(-c4ccccc4)cc23)cc1Cl [Compound 7] | ≥ 10000 | 0.005 |  |  | did not have any measurable activity | 27000 | no effect |  |
| Cc1cccc(-c2cnc3occ(-c4ccc(C(=O)O)c(C5CCCC5)c4)c3c2)c1 [SGC-CAMKK2-1 (YL-36)] |  |  |  |  |  |  |  | 100 |
